pIC50: −log10 of the molar value. Where two headings read alike, the source gives them in different places.
Key:
HEK293 = assay: Cellular IC50 HEK293; format: cell-based
From the text: (§1) XLfit (idbs) was used to determine the IC50-values in inhibition experiments. The following formula was chosen to fit the data points (Langmuir Binding Isotherm): fit=((A+(B*x))+4(C−B)*(1−exp((−1*D)*x)))/D)), res=(y−fit)

TNKS2 = TNKS2 (Homo sapiens (Human), UniProt Q9H2K2); assay: Biochemical IC50 TNKS2; settings: read-out: Biochemical IC50 TNKS2
From the text: as §1

[1] = Homo sapiens, HEK293, HEK293; read-out: Cellular IC50 HEK293

Chain of TNKS2 (Q9H2K2 whole entry): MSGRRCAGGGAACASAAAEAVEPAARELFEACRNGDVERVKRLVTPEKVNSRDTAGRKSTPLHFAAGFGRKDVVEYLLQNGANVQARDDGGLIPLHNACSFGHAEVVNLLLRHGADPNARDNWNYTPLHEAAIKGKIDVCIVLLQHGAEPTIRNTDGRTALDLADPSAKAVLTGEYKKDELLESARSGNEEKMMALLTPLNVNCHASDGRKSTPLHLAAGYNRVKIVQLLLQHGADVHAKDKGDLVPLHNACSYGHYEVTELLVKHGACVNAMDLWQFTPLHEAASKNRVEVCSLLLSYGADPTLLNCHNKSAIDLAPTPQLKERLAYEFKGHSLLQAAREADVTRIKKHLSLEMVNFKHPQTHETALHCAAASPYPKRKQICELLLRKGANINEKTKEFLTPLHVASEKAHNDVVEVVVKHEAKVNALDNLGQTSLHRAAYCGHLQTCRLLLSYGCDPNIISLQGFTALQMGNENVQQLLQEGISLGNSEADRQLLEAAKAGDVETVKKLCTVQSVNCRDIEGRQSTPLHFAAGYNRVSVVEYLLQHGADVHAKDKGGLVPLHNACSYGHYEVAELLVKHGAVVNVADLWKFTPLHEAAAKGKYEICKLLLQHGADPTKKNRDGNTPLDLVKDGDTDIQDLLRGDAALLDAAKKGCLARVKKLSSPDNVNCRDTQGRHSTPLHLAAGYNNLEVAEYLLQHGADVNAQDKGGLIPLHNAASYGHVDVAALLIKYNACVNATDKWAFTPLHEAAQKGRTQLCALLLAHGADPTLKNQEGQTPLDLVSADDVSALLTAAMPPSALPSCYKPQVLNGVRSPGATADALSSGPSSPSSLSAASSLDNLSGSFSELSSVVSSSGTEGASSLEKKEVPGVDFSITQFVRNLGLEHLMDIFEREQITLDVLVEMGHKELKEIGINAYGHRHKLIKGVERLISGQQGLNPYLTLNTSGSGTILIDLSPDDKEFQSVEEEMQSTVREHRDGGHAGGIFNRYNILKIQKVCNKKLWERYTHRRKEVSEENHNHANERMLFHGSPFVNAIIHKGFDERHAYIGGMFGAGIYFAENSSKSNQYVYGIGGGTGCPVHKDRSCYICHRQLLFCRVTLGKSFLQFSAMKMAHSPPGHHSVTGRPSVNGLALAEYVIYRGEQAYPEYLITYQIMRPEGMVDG

Row | SMILES | pIC50 (HEK293; Homo sapiens, HEK293, read-out: Cellular IC50 HEK293) | pIC50 (TNKS2) | pIC50 (HEK293; [1]) | pIC50 (HEK293; Homo sapiens, HEK293; read-out: Cellular IC50 HEK293)
1 | CC(C)Oc1ccc(-c2nnc([C@H]3C[C@H](NC(=O)c4ccccn4)C3)n2-c2ccccc2F)nc1 [Example 111, N-((1S,3r)-3-(4-(2-fluorophenyl)-5-(5-isopropoxypyridin-2-yl)-4H-1,2,4-triazol-3-yl)cyclobutyl)picolinamide] | 6.96 | 7.92 |  | 
2 | O=C(N[C@H]1C[C@H](c2nnc(-c3ccncn3)n2-c2ccccc2Cl)C1)c1ccc(F)cn1 [Example 17, N-((1S,3r)-3-(4-(2-chlorophenyl)-5-(pyrimidin-4-yl)-4H-1,2,4-triazol-3-yl)cyclobutyl)-5-fluoropicolinamide] |  | 8.57 | 8.62 | 
3 | CCOc1ccc(-c2nnc([C@H]3C[C@H](NC(=O)c4cccc5cccnc45)C3)n2-c2ccccc2F)nc1 [Example 60, N-((1S,3r)-3-(5-(5-ethoxypyridin-2-yl)-4-(2-fluorophenyl)-4H-1,2,4-triazol-3-yl)cyclobutyl)quinoline-8-carboxamide] |  | 8.68 | 8.96 | 
4 | CCOc1ccc(-c2nnc([C@H]3C[C@H](NC(=O)c4cn(C)cn4)C3)n2-c2ccccc2F)nc1 [Example 117, N-((1S,3r)-3-(5-(5-ethoxypyridin-2-yl)-4-(2-fluorophenyl)-4H-1,2,4-triazol-3-yl)cyclobutyl)-1-methyl-1H-imidazole-4-carboxamide] |  | 7.06 | 6.26 | 
5 | CCOc1ccc(-c2nnc([C@H]3C[C@H](NC(=O)c4ccnc5cccnc45)C3)n2-c2ccc(Cl)s2)nc1 [Example 76, N-((1r,3r)-3-(4-(5-chlorothiophen-2-yl)-5-(5-ethoxypyridin-2-yl)-4H-1,2,4-triazol-3-yl)cyclobutyl)-1,5-naphthyridine-4-carboxamide] |  | 8.70 | 8.96 | 
6 | CCOc1ccc(-c2nnc([C@H]3C[C@H](NC(=O)c4cccc(C(C)(C)O)n4)C3)n2-c2ccccc2F)nc1 [Example 129, N-((1S,3r)-3-(5-(5-ethoxypyridin-2-yl)-4-(2-fluorophenyl)-4H-1,2,4-triazol-3-yl)cyclobutyl)-6-(2-hydroxypropan-2-yl) picolinamide] |  | 6.68 | 6.19 | 
7 | O=C(N[C@H]1C[C@H](c2nnc(-c3ccncn3)n2-c2ccccc2Cl)C1)c1cccnc1 [Example 9, N-((1S,3r)-3-(4-(2-chlorophenyl)-5-(pyrimidin-4-yl)-4H-1,2,4-triazol-3-yl)cyclobutyl)nicotinamide] |  | 7.74 | 7.30 | 
8 | COc1ccc(C(=O)N[C@H]2C[C@H](c3nnc(-c4ccncn4)n3-c3ccccc3Cl)C2)nc1 [Example 131, N-((1R,3r)-3-(4-(2-chlorophenyl)-5-(pyrimidin-4-yl)-4H-1,2,4-triazol-3-yl)cyclobutyl)-5-methoxypicolinamide] |  | 8.35 | 9.18 | 
9 | O=C(N[C@H]1C[C@H](c2nnc(-c3nccs3)n2-c2ccccn2)C1)c1ccnc2cccnc12 [Example 37, N-((1r,3r)-3-(4-(pyridin-2-yl)-5-(thiazol-2-yl)-4H-1,2,4-triazol-3-yl)cyclobutyl)-1,5-naphthyridine-4-carboxamide] |  | 7.60 | 7.06 | 
10 | CCOc1ccc(-c2nnc([C@H]3C[C@H](NC(=O)c4ccnc5cccnc45)C3)n2-c2ccccc2)nc1 [Example 69, N-((1r,3r)-3-(5-(5-ethoxypyridin-2-yl)-4-phenyl-4H-1,2,4-triazol-3-yl)cyclobutyl)-1,5-naphthyridine-4-carboxamide] |  | 8.70 | 9.15 | 
11 | CCOc1ccc(-c2nnc(C34CC(NC(=O)c5ccnc6cccnc56)(C3)C4)n2-c2ccccc2F)nc1 [Example 62, N-(3-(5-(5-ethoxypyridin-2-yl)-4-(2-fluorophenyl)-4H-1,2,4-triazol-3-yl)bicyclo[1.1.1]pentan-1-yl)-1,5-naphthyridine-4-carboxamide] |  | 8.89 | 8.68 | 
12 | O=C(N[C@H]1C[C@H](c2nnc(-c3ccncn3)n2-c2ccccc2Cl)C1)c1ccncn1 [Example 11, N-((1S,3r)-3-(4-(2-chlorophenyl)-5-(pyrimidin-4-yl)-4H-1,2,4-triazol-3-yl)cyclobutyl)pyrimidine-4-carboxamide] |  | 8.46 | 8.40 | 
13 | CCOc1ccc(-c2nnc([C@H]3C[C@H](NC(=O)c4cc5ncccc5[nH]4)C3)n2-c2ccccc2F)nc1 [Example 148, N-((1S,3r)-3-(5-(5-ethoxypyridin-2-yl)-4-(2-fluorophenyl)-4H-1,2,4-triazol-3-yl)cyclobutyl)-1H-pyrrolo[3,2-b]pyridine-2-carboxamide] |  | 8.30 | 8.10 | 
14 | CCOc1ccc(-c2nnc([C@H]3C[C@H](NC(=O)c4ccn(C)n4)C3)n2-c2ccccc2F)nc1 [Example 120, N-((1S,3r)-3-(5-(5-ethoxypyridin-2-yl)-4-(2-fluorophenyl)-4H-1,2,4-triazol-3-yl)cyclobutyl)-1-methyl-1H-pyrazole-3-carboxamide] |  | 7.74 | 7.19 | 
15 | O=C(N[C@H]1C[C@H](c2nnc(-c3ccncn3)n2-c2ccccc2Cl)C1)c1cccc2ncccc12 [Example 7, N-((1S,3r)-3-(4-(2-chlorophenyl)-5-(pyrimidin-4-yl)-4H-1,2,4-triazol-3-yl)cyclobutyl)quinoline-5-carboxamide] |  | 6.46 | 6.12 | 
16 | CCOc1ccc(-c2nnc([C@H]3C[C@H](NC(=O)c4ccccc4)C3)n2-c2ccccc2Cl)nc1 [Example 136, N-((1S,3r)-3-(4-(2-chlorophenyl)-5-(5-ethoxypyridin-2-yl)-4H-1,2,4-triazol-3-yl)cyclobutyl)benzamide] |  | 8.18 | 7.80 | 
17 | CCOc1ccc(-c2nnc([C@H]3C[C@H](NC(=O)c4ccc(C(C)(C)O)cn4)C3)n2-c2ccccc2F)nc1 [Example 101, N-((1S,3r)-3-(5-(5-ethoxypyridin-2-yl)-4-(2-fluorophenyl)-4H-1,2,4-triazol-3-yl)cyclobutyl)-5-(2-hydroxypropan-2-yl)picolinamide] |  | 7.66 | 7.02 | 
18 | N#Cc1cccc(C(=O)N[C@H]2C[C@H](c3nnc(-c4ccncn4)n3-c3ccccc3Cl)C2)c1 [Example 132, N-((1R,3r)-3-(4-(2-chlorophenyl)-5-(pyrimidin-4-yl)-4H-1,2,4-triazol-3-yl)cyclobutyl)-3-cyanobenzamide] |  | 8.18 | 7.41 | 
19 | CCOc1ccc(-c2nnc([C@H]3C[C@H](NC(=O)c4cc(C)nc5ncnn45)C3)n2-c2ccccc2F)nc1 [Example 158, N-((1S,3r)-3-(5-(5-ethoxypyridin-2-yl)-4-(2-fluorophenyl)-4H-1,2,4-triazol-3-yl)cyclobutyl)-5-methy-[1,2,4]triazolo[1,5-a]pyrimidine-7-carboxamide] |  | 7.59 | 7.36 | 
20 | CCOc1ccc(-c2nnc([C@H]3C[C@H](NC(=O)c4nc5ccccc5[nH]4)C3)n2-c2ccccc2)nc1 [Example 73, N-((1r,3r)-3-(5-(5-ethoxypyridin-2-yl)-4-phenyl-4H-1,2,4-triazol-3-yl)cyclobutyl)-1H-benzo[d]imidazole-2-carboxamide] |  | 8.15 | 6.99 | 
21 | CCOc1ccc(-c2nnc([C@H]3C[C@H](NC(=O)c4ccnc5cc(F)cnc45)C3)n2-c2ccccc2F)nc1 [Example 57, N-((1S,3r)-3-(5-(5-ethoxypyridin-2-yl)-4-(2-fluorophenyl)-4H-1,2,4-triazol-3-yl)cyclobutyl)-7-fluoro-1,5-naphthyridine-4-carboxamide] |  | 8.70 |  | 9.77
22 | CCOc1ccc(-c2nnc([C@H]3C[C@H](NC(=O)c4cc5cc(OC)ncc5[nH]4)C3)n2-c2ccccc2F)nc1 [Example 127, N-((1S,3r)-3-(5-(5-ethoxypyridin-2-yl)-4-(2-fluorophenyl)-4H-1,2,4-triazol-3-yl)cyclobutyl)-5-methoxy-1H-pyrrolo[2,3-c]pyridine-2-carboxamide] |  | 8.37 | 8.04 | 
23 | O=C(N[C@H]1C[C@H](c2nnc(-c3nccs3)n2-c2ccccc2)C1)c1ccnc2cccnc12 [Example 33, N-((1r,3r)-3-(4-phenyl-5-(thiazol-2-yl)-4H-1,2,4-triazol-3-yl)cyclobutyl)-1,5-naphthyridine-4-carboxamide] |  | 8.51 | 8.37 | 
24 | CCOc1ccc(-c2nnc([C@H]3C[C@H](NC(=O)c4ccccc4)C3)n2-c2ccccc2)nc1 [Example 72, N-((1r,3r)-3-(5-(5-ethoxypyridin-2-yl)-4-phenyl-4H-1,2,4-triazol-3-yl)cyclobutyl)benzamide] |  | 7.85 | 7.52 | 
25 | CCOc1ccc(C(=O)N[C@H]2C[C@H](c3nnc(-c4ccc(OCC)cn4)n3-c3ccccc3F)C2)nc1 [Example 58, 5-ethoxy-N-((1S,3r)-3-(5-(5-ethoxypyridin-2-yl)-4-(2-fluorophenyl)-4H-1,2,4-triazol-3-yl)cyclobutyl)picolinamide] |  | 8.70 | 8.00 | 
26 | CCOc1ccc(-c2nnc([C@H]3C[C@H](NC(=O)c4ccc5cc(F)ccc5n4)C3)n2-c2ccccc2F)nc1 [Example 155, N-((1S,3r)-3-(5-(5-ethoxypyridin-2-yl)-4-(2-fluorophenyl)-4H-1,2,4-triazol-3-yl)cyclobutyl)-6-fluoroquinoline-2-carboxamide] |  | 8.04 | 7.92 | 
27 | O=C(N[C@H]1C[C@H](c2nnc(-c3ccncn3)n2-c2ccccc2Cl)C1)c1cccc2cccnc12 [Example 4, N-((1S,3r)-3-(4-(2-chlorophenyl)-5-(pyrimidin-4-yl)-4H-1,2,4-triazol-3-yl)cyclobutyl)quinoline-8-carboxamide] |  | 8.27 | 9.00 | 
28 | CCOc1ccc(-c2nnc([C@H]3C[C@H](NC(=O)c4cccc(C#N)n4)C3)n2-c2ccccc2F)nc1 [Example 53, 6-cyano-N-((1S,3r)-3-(5-(5-ethoxypyridin-2-yl)-4-(2-fluorophenyl)-4H-1,2,4-triazol-3-yl)cyclobutyl)picolinamide] |  | 8.43 | 7.89 | 
